From US20230026271A1, “Piperazine Compounds for Inhibiting CPS1” (Eisai R&D Management Co., Ltd., priority 2019, published 2023) come the findings set out here.

The assay deals with T1, CPS1 (Homo sapiens, UniProt P31327).
T1 construct: The full length, human CPS1 gene was cloned into pFastBac HTA; His6 (from the pFastBac HTA vector); made in house; host or cells: SF21 insect cells (baculovirus, Bac-to-bac)
T1 sequence (P31327 39-1500): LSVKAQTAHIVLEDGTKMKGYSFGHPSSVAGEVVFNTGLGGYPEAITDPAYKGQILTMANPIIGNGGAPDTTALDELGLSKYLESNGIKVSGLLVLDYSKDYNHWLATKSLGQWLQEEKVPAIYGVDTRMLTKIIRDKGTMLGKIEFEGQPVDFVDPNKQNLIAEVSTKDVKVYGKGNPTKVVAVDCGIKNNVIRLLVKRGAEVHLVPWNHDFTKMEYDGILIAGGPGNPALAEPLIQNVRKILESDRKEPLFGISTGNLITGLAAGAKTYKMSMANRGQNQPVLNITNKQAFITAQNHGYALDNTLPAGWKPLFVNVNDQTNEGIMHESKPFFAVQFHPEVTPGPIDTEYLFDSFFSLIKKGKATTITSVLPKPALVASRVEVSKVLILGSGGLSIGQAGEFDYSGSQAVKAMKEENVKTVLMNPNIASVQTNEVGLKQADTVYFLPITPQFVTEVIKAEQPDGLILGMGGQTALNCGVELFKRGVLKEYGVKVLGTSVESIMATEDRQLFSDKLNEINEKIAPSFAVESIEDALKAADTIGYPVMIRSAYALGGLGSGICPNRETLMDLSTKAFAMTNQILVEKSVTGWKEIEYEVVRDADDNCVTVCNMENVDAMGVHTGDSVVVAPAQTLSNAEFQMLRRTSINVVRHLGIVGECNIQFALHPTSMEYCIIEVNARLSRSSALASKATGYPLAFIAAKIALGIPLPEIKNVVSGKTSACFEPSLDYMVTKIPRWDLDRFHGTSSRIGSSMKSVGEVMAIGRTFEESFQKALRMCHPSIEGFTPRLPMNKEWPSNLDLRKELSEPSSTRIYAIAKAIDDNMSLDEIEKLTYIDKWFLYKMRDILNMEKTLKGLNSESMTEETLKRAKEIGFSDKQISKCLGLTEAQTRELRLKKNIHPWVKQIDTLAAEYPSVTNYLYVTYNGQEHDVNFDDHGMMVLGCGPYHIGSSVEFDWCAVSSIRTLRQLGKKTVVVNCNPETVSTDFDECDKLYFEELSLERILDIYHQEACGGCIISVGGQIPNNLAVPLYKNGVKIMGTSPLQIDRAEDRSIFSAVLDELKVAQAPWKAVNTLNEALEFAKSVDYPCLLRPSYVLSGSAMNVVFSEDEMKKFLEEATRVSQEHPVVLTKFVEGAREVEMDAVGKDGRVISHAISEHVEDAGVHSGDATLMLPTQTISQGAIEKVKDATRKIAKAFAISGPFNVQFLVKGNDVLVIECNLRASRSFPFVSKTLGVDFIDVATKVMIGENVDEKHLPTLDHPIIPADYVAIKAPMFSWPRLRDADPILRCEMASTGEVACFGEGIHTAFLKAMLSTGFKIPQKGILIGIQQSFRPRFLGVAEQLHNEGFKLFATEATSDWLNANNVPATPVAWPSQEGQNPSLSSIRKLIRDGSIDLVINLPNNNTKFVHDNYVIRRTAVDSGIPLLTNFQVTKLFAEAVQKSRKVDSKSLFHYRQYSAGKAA
The assay can be described thus: ADP-Glo endpoint assay measuring the ATPase activity of CPS1. Type of assay: biochemical. The settings on record: geometric mean of a minimum of two values; 50 nM CPS1, 10 μM ATP, 0.2 mM NAG, 60 min at room temperature; read-out: ADPGlo IC50. As to the method: CPS1 was expressed and purified from SF21 insect cells. The full length, human CPS1 gene was cloned into pFastBac HTA and baculovirus was generated using the Bac-to-bac expression system from Invitrogen. P3 virus was used to infect SF21 insect cells at a density of 1.5E6 cells/mL at an MOI of 2. Cells were harvested by centrifugation after 60 hrs and the cell pellet resuspended in lysis buffer (50 mM glycyl glycine pH 7.4, 20 mM KCl, 1 mM TCEP, 10% glycerol and 20 mM imidazole with Roche protease inhibitor tablet) before being lysed with 40 strokes of a Dounce homogenizer on ice. The insoluble fraction of the lysate was then cleared by centrifugation at 30,000 rpm for 30 min. 40 mL of supernatant was mixed with 2 mL of Ni NTA beads for 45 min at 4° C. in a 50 mL conical tube.
The beads were washed with 40 mL of wash buffer (50 mM glycyl glycine pH 7.4, 500 mM NaCl, 1 mM TCEP, 10% glycerol and 50 mM imidazole) by centrifugation and resuspension of the beads three times. Bound CPS1 protein was eluted in 6 mL of elution buffer (50 mM glycyl glycine pH 7.4, 500 mM NaCl, 1 mM TCEP, 10% glycerol and 250 mM imidazole) three times. Elution fractions were combined and concentrated using an Amicon Ultra centrifugation filter with a 10,000 molecular weight cut off. Imidazole was removed by repeated concentration and resuspension in storage buffer in the filter device (50 mM glycyl glycine pH 7.4, 500 mM NaCl, 1 mM TCEP and 20% glycerol). CPS1 was concentrated to a final concentration of ˜3 mg/mL before being aliquoted, flash frozen in liquid nitrogen and stored at −80° C.
CPS1 activity was measured and compounds profiled in an endpoint assay measuring the ATPase activity of CPS1 using the ADP-Glo kit from Promega. 50 nM CPS1 was incubated alone or with varying amounts of tested compound from DMSO stocks in assay buffer (50 mM HEPES pH 7.0, 12.5 mM KHCO3, 1.5 mM (NH4)2SO3, 5 mM MgCl2, 50 mM KCl, 1 mM TCEP, 0.01% TritonX 100, 0.0025% BSA and 0.2 mM NAG) for 20 min in a 3 μL volume in a 384-well plate (Corning Cat#3820). The final concentration of DMSO was 0.04%. The reaction was initiated by the addition of 10 μM ATP, bringing the final volume to 6 μL. After 60 min at room temperature, the reaction was terminated with 3 μL ADP-Glo reagent and incubated at room temperature for 30 min. 3 μL of kinase detection reagent was then added and luminescent signal measured on an Envision plate reader after 30 min.
As a reminder, the IC50 is the concentration that gives 50% inhibition. With `COc1ccc(C(=O)N2C[C@@H](C)N(C(=O)c3ccc(-c4cnco4)cc3)[C@H](C)C2)c(F)c1` [Compound 39, ((3R,5R)-3,5-Dimethyl-4-(4-(oxazol-5-yl)benzoyl)piperazin-1-yl)(2-fluoro-4-methoxyphenyl)methanone], the half-maximal inhibitory concentration (IC50) stood at 3.58 µM.
Then `COc1ccc(C(=O)N2C[C@@H](C)N(C(=O)c3ccc(-c4ncc[nH]4)cc3)[C@H](C)C2)c(F)c1` [Compound 40, ((3R,5R)-4-(4-(1H-imidazol-2-yl)benzoyl)-3,5-dimethylpiperazin-1-yl)(2-fluoro-4-methoxyphenyl)methanone], with 7.53 µM; and `COc1ccc(C(=O)N2C[C@@H](C)N(C(=O)c3ccc(-n4cnnn4)cc3)[C@H](C)C2)c(F)c1` [Compound 41, ((3R,5R)-4-(4-(1H-Tetrazol-1-yl)benzoyl)-3,5-dimethylpiperazin-1-yl)(2-fluoro-4-methoxyphenyl)methanone], with 10.4 µM; and `COc1ccc(C(=O)N2C[C@@H](C)N(C(=O)c3ccc(CCO)cc3)[C@H](C)C2)c(F)c1` [Compound 42, ((2R,6R)-4-(2-Fluoro-4-methoxybenzoyl)-2,6-dimethylpiperazin-1-yl)(4-(2-hydroxyethyl)phenyl)methanone], with 10.7 µM.
Then `COc1ccc(C(=O)N2C[C@@H](C)N(C(=O)c3ccc4cc(C)[nH]c4c3)[C@H](C)C2)c(F)c1` [Compound 43, ((3R,5R)-3,5-Dimethyl-4-(2-methyl-1H-indole-6-carbonyl)piperazin-1-yl)(2-fluoro-4-methoxyphenyl)methanone], with 11.4 µM; and `COc1ccc(C(=O)N2CCN(C(=O)c3ccc(OC)cc3F)CC2)c(F)c1` [Compound 44, Piperazine-1,4-diylbis((2-fluoro-4-methoxyphenyl)methanone)], with 7.78 µM; and `COc1ccc(C(=O)N2CCN(C(=O)c3ccc(OC)cc3F)C(C)C2)c(F)c1` (centres unmarked) [Compound 45, (2-Methylpiperazine-1,4-diyl)bis((2-fluoro-4-methoxyphenyl)methanone)], with 5.21 µM.
Then `COc1ccc(C(=O)N2CCN(C(=O)c3ccc(OC)cc3F)[C@H](C)C2)c(F)c1` [Compound 46, (R)-(2-methylpiperazine-1,4-diyl)bis((2-fluoro-4-methoxyphenyl)methanone)], with 6.04 µM.
Turning to `COc1ccc(C(=O)N2C[C@H](C)N(C(=O)c3ccc(OC)cc3F)C[C@H]2C)c(F)c1` [Compound 47, ((2S,5R)-2,5-dimethylpiperazine-1,4-diyl)bis((2-fluoro-4-methoxyphenyl)methanone)], the IC50 came out at 0.714 µM.
`COc1ccc(C(=O)N2CCN(C(=O)c3ccc(OC)cc3F)C(C)(C)C2)c(F)c1` [Compound 48, (2,2-Dimethylpiperazine-1,4-diyl)bis((2-fluoro-4-methoxyphenyl)methanone)]: the IC50 was 4.68 µM.
With `COc1ccc(C(=O)N2C[C@H](C)N(C(=O)c3ccc(OC)cc3F)[C@@H](C)C2)c(F)c1` [Compound 49, ((2S,6S)-2,6-Dimethylpiperazine-1,4-diyl)bis((2-fluoro-4-methoxyphenyl)methanone)] the figure was 6.56 µM.
As to `COc1ccc(C(=O)N2C[C@@H](C)N(C(=O)c3ccc(OC)cc3F)[C@@H](C)C2)c(F)c1` [Compound 50, ((2R,6S)-2,6-Dimethylpiperazine-1,4-diyl)bis((2-fluoro-4-methoxyphenyl)methanone)], the concentration for half-maximal inhibition (IC50) is 6.98 µM.
Regarding `COc1ccc(C(=O)N2CCN(C(=O)c3ccc(OC)cc3F)[C@@H](C)C2)c(F)c1` [Compound 51, (S)-(2-Methylpiperazine-1,4-diyl)bis((2-fluoro-4-methoxyphenyl)methanone)], the IC50 worked out at 2.78 µM.
Take `COc1ccc(OC)c2[nH]c(C(=O)N3[C@H](C)CN(C(=O)c4ccc5cc[nH]c5c4)C[C@H]3C)cc12` [Compound 52, ((2R,6R)-4-(1H-indole-6-carbonyl)-2,6-dimethylpiperazin-1-yl)(4,7-dimethoxy-1H-indol-2-yl)methanone]: the IC50 came to 0.193 µM.
For `COc1ccc(OC)c2[nH]c(C(=O)N3C[C@@H](C)N(C(=O)c4ccc5cc[nH]c5c4)[C@H](C)C3)cc12` [Compound 53, ((3R,5R)-4-(1H-indole-6-carbonyl)-3,5-dimethylpiperazin-1-yl)(4,7-dimethoxy-1H-indol-2-yl)methanone], the IC50 turned out to be 1.59 µM.
With `COc1ccc(OC)c2[nH]c(C(=O)N3CCN(C(=O)c4ccc5cc[nH]c5c4)CC3)cc12` [Compound 54, (4-(1H-indole-6-carbonyl)piperazin-1-yl)(4,7-dimethoxy-1H-indol-2-yl)methanone] the figure was 2.12 µM; with `COc1ccc(C(=O)N2C[C@@H](C)N(C(=O)c3cc4cc(O)ccc4[nH]3)[C@H](C)C2)c(F)c1` [Compound 55, ((2R,6R)-4-(2-fluoro-4-methoxybenzoyl)-2,6-dimethylpiperazin-1-yl)(5-hydroxy-1H-indol-2-yl)methanone], 2.13 µM; with `COc1ccc(C(=O)N2[C@H](C)CN(C(=O)c3c[nH]c4c(C)cccc34)C[C@H]2C)c(F)c1` [Compound 56, ((2R,6R)-2,6-dimethyl-4-(7-methyl-1H-indole-3-carbonyl)piperazin-1-yl)(2-fluoro-4-methoxyphenyl)methanone], 3.28 µM.
Regarding `COc1ccc(C(=O)N2C[C@@H](C)N(C(=O)c3cc4ccccc4[nH]3)[C@H](C)C2)c(F)c1` [Compound 57, ((3R,5R)-4-(1H-indole-2-carbonyl)-3,5-dimethylpiperazin-1-yl)(2-fluoro-4-methoxyphenyl)methanone], the IC50 came out at 3.3 µM.
Then `COc1ccc(C(=O)N2[C@H](C)CN(C(=O)c3c[nH]c4c(F)cccc34)C[C@H]2C)c(F)c1` [Compound 58, (7-fluoro-1H-indol-3-yl)((3R,5R)-4-(2-fluoro-4-methoxybenzoyl)-3,5-dimethylpiperazin-1-yl)methanone], with 4.05 µM.
